Tests used:
HCT-116 cells [1] = assay: MTT cytotoxicity assay, HCT-116; assay type: cell-based, human; conditions: for IC50: Homo sapiens, HCT-116; for Selectivity Index (SI) HCT-116: IC50 NHDF-Neo / IC50 HCT-116, 72 h incubation; for inhibition of cell growth at the highest doses, HCT-116: 72 h
Experimental: (§1) An in vitro biological test package was performed for the obtained derivatives. […] The MTT test is a colorimetric method for detecting proliferating cells. It is based on the ability of the enzyme mitochondrial dehydrogenase to convert yellow tetrazole salt (MTT) into purple formazan. The amount of the product formed in the reaction, determined spectrophotometrically, is proportional to the number of living cells.
(§2) The in vitro cytotoxicity of the test compounds was determined by the MTT (3-[4,5–dimethylthiazol-2-yl]-2,5-diphenyltetrazolium bromide) test (Sigma-Aldrich, Taufkirchen, Germany) according to the manufacturer’s protocol. At the beginning, for each cell line were determined the optimal seeding densities to ensure exponential growth throughout the experimental period. The confluent layer of cells were trypsinized, collected, and suspended in a growth medium. […] Then, the culture medium was replaced with solutions of different concentrations of test compounds in a fresh medium. Stock solutions of test compounds were prepared in DMSO and diluted to final concentrations with appropriate volumes of the growth medium directly before the experiment. Cells suspended in a medium supplemented with 0.5% DMSO (the amount of DMSO necessary to dissolve the highest dose of the respective sample) were used as a control of the experiment. […] The compound-treated cells were incubated for a further 24–72 h. […] After this time, the MTT dye was carefully removed, and the acquired formazan crystals were dissolved by DMSO (Chempur, Piekary Śląskie, Poland). The proliferation was evaluated by measuring the formazan product’s absorbance at a wavelength of 570 nm with a microplate spectrophotometer (Epoch, BioTek, Winooski, VT, USA). All experiments were conducted in triplicate with four technical repeats for each tested concentration. Results were expressed as the percentage change in the viability of the test cells relative to the untreated control cells and calculated as the inhibitory concentration (IC50). […] The results are expressed as the average value ± standard deviation (SD).

NHDF-Neo cells = assay: MTT cytotoxicity assay, NHDF-Neo; assay type: cell-based; conditions: Homo sapiens, incubation time 72 h
Experimental: An in vitro biological test package was performed for the obtained derivatives. All newly synthesized compounds were assessed for their cytotoxic activity against human cell lines with increased GLUT expression: the colon cancer cell line (HCT-116) and the breast cancer cell line (MCF-7), as well as on normal human dermal fibroblasts cells (NHDF-Neo), using the MTT assay (3-(4,5-dimethylthiazol-2-yl)-2,5-diphenyltetrazolium bromide). The MTT test is a colorimetric method for detecting proliferating cells. It is based on the ability of the enzyme mitochondrial dehydrogenase to convert yellow tetrazole salt (MTT) into purple formazan. The amount of the product formed in the reaction, determined spectrophotometrically, is proportional to the number of living cells. The antiproliferative activity was expressed as the concentration that caused 50% inhibition of the growth of the population of cells treated with the test compounds relative to the control cells (inhibitory concentration activity—IC50). Table 1 and Table 2 summarize the IC50 values calculated for all tested compounds.
The in vitro cytotoxicity of the test compounds was determined by the MTT (3-[4,5–dimethylthiazol-2-yl]-2,5-diphenyltetrazolium bromide) test (Sigma-Aldrich, Taufkirchen, Germany) according to the manufacturer’s protocol. At the beginning, for each cell line were determined the optimal seeding densities to ensure exponential growth throughout the experimental period. The confluent layer of cells were trypsinized, collected, and suspended in a growth medium. The cell suspension were then seeded into 96-well plates at a density of 1 × 10^4 or 2 × 10^3 (HCT-116) or 5 × 10^3 (MCF-7, NHDF-Neo) per well and incubated for 24 h under standard conditions (5% CO2, 37 °C). Then, the culture medium was replaced with solutions of different concentrations of test compounds in a fresh medium. Stock solutions of test compounds were prepared in DMSO and diluted to final concentrations with appropriate volumes of the growth medium directly before the experiment. Cells suspended in a medium supplemented with 0.5% DMSO (the amount of DMSO necessary to dissolve the highest dose of the respective sample) were used as a control of the experiment. […] The compound-treated cells were incubated for a further 24–72 h. After that, the medium was removed and the MTT solution (50 µL, 0.5 mg/mL in PBS) was added into each well and incubated for another 3 h under standard conditions (5% CO2, 37 °C). After this time, the MTT dye was carefully removed, and the acquired formazan crystals were dissolved by DMSO (Chempur, Piekary Śląskie, Poland). The proliferation was evaluated by measuring the formazan product’s absorbance at a wavelength of 570 nm with a microplate spectrophotometer (Epoch, BioTek, Winooski, VT, USA). All experiments were conducted in triplicate with four technical repeats for each tested concentration. Results were expressed as the percentage change in the viability of the test cells relative to the untreated control cells and calculated as the inhibitory concentration (IC50). The IC50 values were defined as the drug concentration that was necessary to reduce cell proliferation to 50% of the untreated control and this parameter was calculated using CalcuSyn software (version 2.0, Biosoft, Cambridge, UK). The results are expressed as the average value ± standard deviation (SD).

MCF-7 cells [2] = assay: MTT cytotoxicity assay, MCF-7; assay type: cell-based, human; conditions: for IC50: Homo sapiens, MCF7, incubation time 72 h; for Selectivity Index (SI) MCF-7: IC50 NHDF-Neo / IC50 MCF-7, 72 h incubation; for inhibition of cell growth at the highest doses, MCF-7: 72 h
Experimental: as §1, §2

HCT-116 cells [3] = assay: Annexin V-FITC/PI apoptosis flow cytometry, HCT-116; assay type: cell-based, human; conditions: IC50 dose, 24 h
Excerpt: (§3) Apoptosis is a natural biological process involving programmed cell death and plays an important role in maintaining correct homeostasis between cell proliferation and cell death. This is in contrast to necrosis, which is accompanied by acute inflammation, preceded by cell degradation due to the loss of the integrity of the cell membrane. It is possible to distinguish viable cells from apoptotic and necrotic cell fractions using Annexin V-FITC and Propidium Iodide (PI). Annexin V-FITC labels phosphatidylserine residues that, after the start of apoptosis, are located on the outer surface of the cell membrane, enabling the identification of cells in the early stages of apoptosis. PI binds stoichiometrically to intracellular DNA during late apoptosis and necrosis when the cell membrane has been damaged. This combination allows for the differentiation of early apoptotic (A+/P−), late apoptotic (A+/P+), necrosis (A−/P+), and normal (A−/P−) cells that can be quantified by flow cytometry.
(§4) The cell cycle and the type of cell death induced by the test compounds were measured by using flow cytometry according to the manufacturer’s protocol. […] Control cells were grown with fresh medium supplemented with 0.5% DMSO. After 24 h of incubation, the cells were collected by trypsinization. Then, samples were centrifuged (3 min, 2000 rpm, RT) and washed with PBS, after which the cells were centrifuged again (3 min, 2000 rpm, RT) and the supernatant was carefully removed. The resulting precipitate contained cells, which were used for flow cytometry experiments.
(§5) The fraction of dead cells after treatment with the test compounds were detected using the FITC Annexin-V Apoptosis Detection Kit with PI (BioLegend, San Diego, CA, USA). […] 250 μL of the Annexin-V Binding Buffer was then added and the samples were incubated in the dark on ice for 15 min.

MCF-7 cells [4] = assay: Annexin V-FITC/PI apoptosis flow cytometry, MCF-7; assay type: cell-based, human; conditions: IC50 dose, 24 h
Excerpt: as §3, §4, §5

SMILES | IC50 (HCT-116 cells [1]; MTT, incubation time 24 h) | IC50 (HCT-116 cells [1]; MTT, incubation time 72 h) | Selectivity Index (SI) HCT-116 (HCT-116 cells [1]) | growth inhibitory activity in words, HCT-116 (HCT-116 cells [1]; MTT) | IC50 (NHDF-Neo cells) | IC50 (MCF-7 cells [2]; MTT) | Selectivity Index (SI) MCF-7 (MCF-7 cells [2]) | growth inhibitory activity in words, MCF-7 (MCF-7 cells [2]; MTT) | apoptotic cells, HCT-116 (HCT-116 cells [3]) | apoptotic cells, MCF-7 (MCF-7 cells [4]) | inhibition of cell growth at the highest doses, HCT-116 (HCT-116 cells [1]; MTT) | inhibition of cell growth at the highest doses, MCF-7 (MCF-7 cells [2]; MTT) | apoptosis induction in words, HCT-116 (HCT-116 cells [3]) | apoptosis induction in words, MCF-7 (MCF-7 cells [4])
OC[C@H]1O[C@@H](n2cc(COc3cccc4cccnc34)nn2)[C@H](O)[C@@H](O)[C@@H]1O [Compound E-2, reference compound] | 212 ± 7.71 µM | 162 ± 5.97 µM | 1.43 | practically did not affect the cell viability | 233 ± 9.44 µM | 185 ± 2.21 µM | 1.26 | practically did not affect the cell viability | – | – | – | – | – | –
O[C@@H]1[C@@H](O)[C@@H](O[C@H]2O[C@H](Cn3cc(COc4cccc5cccnc45)nn3)[C@@H](O)[C@H](O)[C@H]2O)O[C@H](Cn2cc(COc3cccc4cccnc34)nn2)[C@H]1O [Compound D-2] | 53.4 ± 5.14 µM | 21.3 ± 0.94 µM | 3.32 | – | 70.7 ± 0.75 µM | 34 ± 0.95 µM | 2.08 | – | 87% | 70% | – | – | – | –
CC(=O)OC1O[C@H](Cn2cc(COc3cccc4cccnc34)nn2)[C@@H](OC(C)=O)[C@H](OC(C)=O)[C@H]1OC(C)=O (stereo partly drawn) [Compound A-1] | 83.5 ± 1.91 µM | 12 ± 0.9 µM | 10.83 | – | 130 ± 1.49 µM | 52.8 ± 0.75 µM | 2.46 | – | 29% | 35% | 100% | 100% | – | –
CC(=O)OC[C@H]1O[C@@H](n2cc(COc3cccc4cccnc34)nn2)[C@H](OC(C)=O)[C@@H](OC(C)=O)[C@@H]1OC(C)=O [Compound E-1, reference compound] | – | 45.7 ± 1.81 µM | 1.21 | – | 55.3 ± 5.08 µM | 57.7 ± 3.32 µM | 0.96 | – | – | – | 100% | 100% | did not induce apoptosis | did not induce apoptosis
OC1O[C@H](Cn2cc(COc3cccc4cccnc34)nn2)[C@@H](O)[C@H](O)[C@H]1O (stereo partly drawn) [Compound A-2] | 191 ± 2.46 µM | 22.3 ± 0.7 µM | 14.21 | – | 317 ± 9.46 µM | 54.9 ± 8.71 µM | 5.78 | – | 46% | 39% | 100% | 100% | – | –

— article PMC9607644, “Glycoconjugation of Quinoline Derivatives Using the C-6 Position in Sugars as a Strategy for Improving the Selectivity and Cytotoxicity of Functionalized Compounds” (Molecules, 2022)
